Measurements from publication PMC5587642, “A Novel Benzocoumarin-Stilbene Hybrid as a DNA ligase I inhibitor with in vitro and in vivo anti-tumor activity in breast cancer models” (Scientific Reports, 2017).

Key:
[1] = molecular target: T1, DNA ligation (hLigI) in MDA-MB-231 cell lysate (Homo sapiens, UniProt P18858); experiment: Ex-vivo ligation assay with lysate of treated cells; format: cell-based; conditions: MDA-MB-231, treated 48 h
T1 construct: endogenous in cells; host or cells: MDA-MB-231
T1 sequence (P18858 whole entry): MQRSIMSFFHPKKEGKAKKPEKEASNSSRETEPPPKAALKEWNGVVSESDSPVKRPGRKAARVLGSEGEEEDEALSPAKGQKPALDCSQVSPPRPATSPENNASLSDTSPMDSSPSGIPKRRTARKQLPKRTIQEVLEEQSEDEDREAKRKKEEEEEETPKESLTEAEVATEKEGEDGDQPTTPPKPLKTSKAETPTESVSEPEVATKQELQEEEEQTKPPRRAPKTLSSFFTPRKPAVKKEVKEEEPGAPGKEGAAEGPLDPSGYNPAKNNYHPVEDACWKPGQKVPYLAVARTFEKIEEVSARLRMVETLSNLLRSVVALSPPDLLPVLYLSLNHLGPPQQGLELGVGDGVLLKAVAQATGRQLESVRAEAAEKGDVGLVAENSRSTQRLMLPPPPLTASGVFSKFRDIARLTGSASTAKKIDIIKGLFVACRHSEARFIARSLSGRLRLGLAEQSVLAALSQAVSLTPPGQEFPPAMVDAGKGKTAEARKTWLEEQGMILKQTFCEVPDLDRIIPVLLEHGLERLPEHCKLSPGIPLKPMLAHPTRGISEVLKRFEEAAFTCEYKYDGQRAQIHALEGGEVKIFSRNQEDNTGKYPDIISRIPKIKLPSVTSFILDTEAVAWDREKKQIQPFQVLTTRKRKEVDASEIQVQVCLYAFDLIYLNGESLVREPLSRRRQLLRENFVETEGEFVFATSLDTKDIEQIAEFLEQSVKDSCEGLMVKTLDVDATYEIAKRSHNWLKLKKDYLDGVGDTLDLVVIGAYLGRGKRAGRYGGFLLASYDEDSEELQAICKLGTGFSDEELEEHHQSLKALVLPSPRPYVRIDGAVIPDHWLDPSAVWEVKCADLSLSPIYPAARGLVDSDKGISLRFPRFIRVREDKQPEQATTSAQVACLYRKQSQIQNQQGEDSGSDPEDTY
Experimental: Cells (MDA-MB-231) were seeded in 6 well plates and treated either with vehicle control (DMSO) or with different concentrations (6 and 12 µM) of compound 19 for 48 h. After the treatment cell lysate was prepared and western blotting was performed as described previously. Briefly, the cells were lysed by very brief sonication. Sonicated samples were centrifuged and the supernatant was collected and used for ligation assay and western blotting.
The MDA-MB-231 and 4T1 cells were treated with different concentrations of compound 19 for 48h. Cell lysate were prepared as described previously ^6 for the ligation assay. Here we used same DNA substrate which was used in FEN1 flap cleavage assay so that we can check the activity of hLigI and FEN1 proteins in compound 19 treated samples. The reactions were performed as described previously ^6. In the Supplementary Fig. 74 cleaved product remain (25 mer) same. This cleaved product occurs after the cleavage of 25+6 mer oligo by FEN1 protein, since the cleaved product (25 mer) remains same in treated as well as in control samples we can conclude that the compound 19 unable to inhibit the FEN1 protein inside the cells. The cleaved product (25 mer) make a double strand nicked substrate for hLig I protein with 27 mer and 52 mer oligo used in the reaction. hLigI protein gives rise to ligated (52 mer oligo) product after the completion of reaction. […]

hLigI = molecular target: T2, hLigI (Homo sapiens, UniProt P18858); experiment: In-vitro fluorescence quenching assay; format: binding; conditions: 5 and 10 µM, excitation 280 nm
T2 construct: made in house
T2 sequence (P18858 whole entry): as above
Experimental: In-vitro fluorescence quenching assay was performed as described previously[16] with brief modifications. At the fixed excitation wavelength 280 nm emission spectra of hLigI (100 pmol) was recorded from 300 to 400 nm in the presence (5 and 10 µM) or absence of compound 19 by spectrofluorometer. Compound 19 was used at 5 and 10 µM concentration with hLigI (100 pmol). Spectra was acquired for buffer alone (50 mM Tris-HCl, pH 7.5, 50 mM NaCl, 1 mM ATP, 10 mM MgCl2, 2 mM DTT and 5% glycerol), buffer with vehicle control, buffer with inhibitor alone and for buffer with protein and inhibitor.

MDA-MB-231 cells = experiment: Annexin V-FITC/PI apoptosis flow cytometry; format: cell-based, human
Experimental: Apoptotic cell death of MDA-MB-231 cells upon treatment with compound 19 was measured using a commercially available Annexin V-FITC apoptosis detection kit according to the manufacturer’s protocol (BD Biosciences, San Diego, CA). Briefly, cells were treated with different concentrations (0, 6 and 12 µM) of compound 19 for 24 and 48 h. The cells were then harvested, washed with cold PBS and stained with Annexin V-FITC and propidium iodide (PI) in binding buffer at room temperature in the dark. The stained cells were analyzed by fluorescence-activated cell sorting using a FACS-Calibur instrument (BD Biosciences, San Diego, CA) equipped with CellQuest 3.3 Software.

FEN1 protein = molecular target: T3, FEN1 protein (Homo sapiens, UniProt P39748); experiment: Flap cleavage assay; format: biochemical; conditions: compound 19 at 5, 10, 20 µM
T3 construct: His-tag (C); made in house; host or cells: E. coli BL21DE3
T3 sequence (P39748 whole entry): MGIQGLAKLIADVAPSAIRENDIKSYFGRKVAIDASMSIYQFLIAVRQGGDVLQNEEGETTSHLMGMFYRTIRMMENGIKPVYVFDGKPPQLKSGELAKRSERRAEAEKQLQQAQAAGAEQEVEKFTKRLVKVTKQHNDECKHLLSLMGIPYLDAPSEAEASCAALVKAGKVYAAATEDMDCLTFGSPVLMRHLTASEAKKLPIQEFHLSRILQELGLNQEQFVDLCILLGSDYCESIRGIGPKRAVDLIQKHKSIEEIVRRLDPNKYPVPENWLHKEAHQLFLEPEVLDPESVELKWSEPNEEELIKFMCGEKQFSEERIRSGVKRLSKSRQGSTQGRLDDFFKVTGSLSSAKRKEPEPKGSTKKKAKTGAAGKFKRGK
Experimental: Purification of FEN 1: Full length FEN1 DNA template was taken from pShuttle-FEN1hWT, a gift from Sheila Stewart (Addgene plasmid#35027) is subcloned into a pET41a expression vector containing C-terminal His-tag. pET41FEN1His freshly transformed into expression host BL21DE3 E. coli cells (Novagene), single colonies picked and inoculated in 5ml of LB media containing 50μg/ml of Kanamycin, grown for 3 to 4 hrs and further subcultured in 100 ml of LB medium containing 50μg/ml of Kanamycin and grown at 37°C till the OD reached to 0.6-0.7, induced at 0.5 mM IPTG at 16°C for 18hrs. Pellets were collected and lysed in 20 mM tris 150 mM NaCl (Lysis buffer) containing 1mM PMSF and 1mM benzamidine hydrochloride and purified by Ni-NTA affinity chromatography.
Flap cleavage assay: All oligos were purchased from Integrated DNA Technologies and dissolved in nuclase free water at concentration of 100μM. FAM-labeled 25+6 Flap-mer (5’-[…]-3’*6FAM)) was annealed with 52- mer (5’-[…]-3’) and 27-mer (5’-[…]-3’) to form a complementary double strand flap cleavage substrate. […] The cleaved and uncleaved DNA molecules are separated on 15% Urea gel and bands were detected by Image Quant LAS 4010 (GE Healthcare).

COc1cc(/C=C/c2cc(=O)oc3c2ccc2ccccc23)cc(OC)c1 [Compound 19, (E)-4-(3,5-dimethoxystyryl)-2H-benzo[h]chromen-2-one]
DNA ligation capacity of lysate of treated cells [1]: reduced capacity for DNA ligation
Change of hLigI fluorescence spectra (protein binding) (hLigI): fluorescence spectra of the full length hLigI protein changed
Apoptosis (MDA-MB-231 cells; 6 µM, 24 h): 10.78 ± 1.21%
Apoptosis (MDA-MB-231 cells; 6 µM, 48 h): 18.68 ± 4.86%
Apoptosis (MDA-MB-231 cells; 12 µM, 24 h): 16.37 ± 1.18%
Apoptosis (MDA-MB-231 cells; 12 µM, 48 h): 36.17 ± 3.43%
Inhibition of FEN1 flap cleavage activity (FEN1 protein): not able to inhibit
